Measured values as given in PubChem BioAssay AID1963443 (Molecular Pharmacology Branch, DTP, NCI, 2024).

Test system: MDA-MB-231 complex spheroids, growth inhibition
Experiment: Anticancer human tumor MDA-MB-231 cell line growth inhibition [Asc];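 note: spheroids exposed to compounds for 7 days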
Conditions: for IC50: curve of first compound; for viability, T/C: stronger effect = lower value
Description: Multicellular complex tumor spheroid response to apoptosis pathway targeting inhibitors Alrizomadlin, Pelcitoclax, and Dasminapant in combination with a variety of drugs and investigational agents in selected tumor cell lines
The MDM2 inhibitor alrizomadlin, the Bcl-2/Bcl-xL inhibitor pelcitoclax, and the IAPs inhibitor dasminapant were evaluated both individually and in combination with standard of care and investigational anticancer small molecules within a complex spheroid model of solid tumors. . Complex spheroids include a stromal component modeled by human endothelial cells (HUVEC) and fibroblasts modeled by human mesenchymal stem cells (MSCs). The concentration ranges selected for each drug and investigational agent were based upon clinically achievable concentrations if the clinical Cmax of the agent was known.
Compounds. The drugs and investigational agents: alrizomadlin (APG-115; NSC831270), pelcitoclax (APG-1252; NSC835773), dasminapant (APG-1387;NSC834197), TAK-243 (NSC785004), copanlisib (NSC809693), olaparib (NSC753686), talazoparib (NSC767125), cobimetinib (NSC 768068), eltanexor (KPT-8602, NSC 794443), abemaciclib (NSC 768073), sotorasib (NSC818433), adagrasib (NSC 831453), MRTX-1133 (NSC 836407), Iadademestat (ORY1001, NSC 806812), and RMC-4630 (NSC839698), were obtained from the NCI Developmental Therapeutics Program Chemical Repository. The FDA-approved anticancer drug set is available from the Developmental Therapeutics Program at https://dtp.cancer.gov/organization/dscb/obtaining/available plates.htm. […] The stock solutions were prepared in dimethyl sulfoxide (DMSO, Sigma-Aldrich, St. Louis, MO, cat. D2650) at 800-fold the tested concentration and stored at -70 degrees C prior to their use. All drugs and investigational agents were tested over a range starting from a high concentration at or near the clinical Cmax and decreasing in half-log increments. If the clinical Cmax for an agent had not been determined, the highest concentration tested was 10 microM.
The patient-derived cancer (PDC) cell lines include five colon adenocarcinomas: 186277-243-T-J2-PDC, 616215-338-R-J1-PDC, 439559-082-T-J2-PDC, 463943-066-T-J2-PDC, and 519858-162-T-J1-PDC; three pancreatic carcinomas: 323965-272-R-J2-PDC, 521955-158-R6-J3-PDC, and 521955-158-R2-J5-PDC; two uterine sarcomas: 327498-152-R-J2-PDC and 993429-296-R-J1-PDC; two rhabdomyosarcomas: 755483-174-R-J1-PDC and 772245-204-R-J1-PDC; two soft tissue sarcomas: 126254-015-R-J1-PDC and 494315-158-R-J1-PDC; two malignant fibrous histiocytomas: 317291-083-R-J1-PDC and 596521-263-R-J1-PDC; two breast carcinomas: 171881-019-R-J1-PDC and 885512-296-R-J2-PDC; and one ovarian carcinoma: 6556581-035-R-J-PDC were obtained from the NCI PDMR, (https://pdmr.cancer.gov). The established cell lines HSSY-2 synovial sarcoma (RRID:CVCL 8719), SYO-1 synovial sarcoma (RRID:CVCL_7146), MPNST malignant peripheral neural sheath tumor were obtained from the Sloan Kettering Institute. The following established cell lines were purchased from the American Type Culture Collection (ATCC, Manassas, VA), Sor the received from the NCI repository:, PANC-1 pancreatic carcinoma (CRL-1469, RRID:CVCL_0480), OVCAR-5 ovarian carcinoma (RRID:CVCL_1628), OVCAR-8 ovarian carcinoma (RRID:CVCL_1629), , MCF-7 breast carcinoma (CRL-12584, RRID:CVCL_0031), MDA-MB-231 breast carcinoma (CRL-12532, RRID:CVCL_0062), NCI-H1876 small cell lung carcinoma (CRL-5902, RRID:CVCL_1503), NCI-H510A small cell lung carcinoma (HTB-184, RRID:CVCL_1565), NCI-H1417 (CRL-5869, RRID:CVCL_1469), and NCI-H196 small cell lung carcinoma (CRL-5823, RRID:CVCL_1509). Dr. Peter Houghton (Greehey Children's Cancer Research Institute, University of Texas Health Science Center, San Antonio, TX) provided Rh-18 rhabdomyosarcoma (RRID:CVCL_1659). Pooled donor human umbilical vein endothelial cells (HUVEC, Lonza, cat. CC-2519) and human mesenchymal stem cells (hMSC, Lonza, cat. PT-2501) were purchased from Lonza (Walkersville, MD).
Cell Culture. […]

[1] = second compound 0.1 µM, first compound 0.00316 µM
[2] = second compound 0.1 µM, first compound 0.01 µM
[3] = second compound 0.1 µM, first compound 0.0316 µM
[4] = second compound 0.1 µM, first compound 0.1 µM
[5] = second compound 0.1 µM, first compound 0.316 µM
[6] = second compound 0.1 µM, first compound 1 µM
[7] = second compound 0.316 µM, first compound 0.00316 µM
[8] = second compound 0.316 µM, first compound 0.01 µM
[9] = second compound 0.316 µM, first compound 0.0316 µM
[10] = second compound 0.316 µM, first compound 0.1 µM
[11] = second compound 0.316 µM, first compound 0.316 µM
[12] = second compound 0.316 µM, first compound 1 µM
[13] = second compound 1 µM, first compound 0.00316 µM
[14] = second compound 1 µM, first compound 0.01 µM
[15] = second compound 1 µM, first compound 0.0316 µM
[16] = second compound 1 µM, first compound 0.1 µM
[17] = second compound 1 µM, first compound 0.316 µM
[18] = second compound 1 µM, first compound 1 µM

SMILES | IC50 (second compound 0.1 µM) [nM] | IC50 (second compound 0.316 µM) [nM] | IC50 (second compound 1 µM) [nM] | viability, T/C [1] [%] | viability, T/C [2] [%] | viability, T/C [3] [%] | viability, T/C [4] [%] | viability, T/C [5] [%] | viability, T/C [6] [%] | viability, T/C [7] [%] | viability, T/C [8] [%] | viability, T/C [9] [%] | viability, T/C [10] [%] | viability, T/C [11] [%] | viability, T/C [12] [%] | viability, T/C [13] [%] | viability, T/C [14] [%] | viability, T/C [15] [%] | viability, T/C [16] [%] | viability, T/C [17] [%] | other results
COc1c(OCCCN2CCOCC2)ccc2c3n(c(=NC(=O)c4cnc(N)nc4)nc12)CCN3 + Cc1c(S(C)(=O)=O)c(-c2cc(F)cc(N3CCN(c4ccc(NS(=O)(=O)c5ccc(NC(CCN6CCC(C(=O)OCCCP(=O)(O)O)CC6)CSc6ccccc6)c(S(=O)(=O)C(F)(F)F)c5)cc4)CC3)c2)c(-c2ccc(Cl)cc2)n1C(C)C | 95.4 | 72.9 | 64.2 | 85.8 | 85.2 | 67.7 | 49.3 | 31.3 | 20.1 | 94.6 | 81.1 | 63 | 47 | 24.3 | 12.1 | 94.8 | 85.1 | 66 | 40.8 | 17.6 | IC50 (second compound 3.16 µM): 44.5 nM; IC50 (second compound 10 µM): 49 nM; viability, T/C [18]: 8.74%; viability, T/C (second compound 3.16 µM, first compound 0.00316 µM): 88.1%; viability, T/C (second compound 3.16 µM, first compound 0.01 µM): 84.2%; viability, T/C (second compound 3.16 µM, first compound 0.0316 µM): 54.6%; viability, T/C (second compound 3.16 µM, first compound 0.1 µM): 32.8%; viability, T/C (second compound 3.16 µM, first compound 0.316 µM): 12.1%; viability, T/C (second compound 3.16 µM, first compound 1 µM): 5.37%; viability, T/C (second compound 10 µM, first compound 0.00316 µM): 90.3%; viability, T/C (second compound 10 µM, first compound 0.01 µM): 85.1%; viability, T/C (second compound 10 µM, first compound 0.0316 µM): 59.8%; viability, T/C (second compound 10 µM, first compound 0.1 µM): 32.5%; viability, T/C (second compound 10 µM, first compound 0.316 µM): 10.2%; viability, T/C (second compound 10 µM, first compound 1 µM): 3.64%
COc1c(OCCCN2CCOCC2)ccc2c3n(c(=NC(=O)c4cnc(N)nc4)nc12)CCN3 + CNC(C)C(=O)NC1CN(S(=O)(=O)c2cccc(S(=O)(=O)N3CCC4CCC(C(=O)NC(c5ccccc5)c5ccccc5)N4C(=O)C(NC(=O)C(C)NC)C3)c2)CCC2CCC(C(=O)NC(c3ccccc3)c3ccccc3)N2C1=O | < 3.16 | < 3.16 | < 3.16 | 2.16 | 2.68 | 2.19 | 1.47 | 1.18 | 0.78 | 1.32 | 1.65 | 1.85 | 1.41 | 0.21 | 0.62 | 1.05 | 1.1 | 0.84 | 0.98 | 0.77 | IC50 (second compound 0.01 µM): < 3.16 nM; IC50 (second compound 0.0316 µM): < 3.16 nM; viability, T/C (second compound 0.01 µM, first compound 0.00316 µM): 3.3%; viability, T/C (second compound 0.01 µM, first compound 0.01 µM): 4.73%; viability, T/C (second compound 0.01 µM, first compound 0.0316 µM): 3.39%; viability, T/C (second compound 0.01 µM, first compound 0.1 µM): 3.64%; viability, T/C (second compound 0.01 µM, first compound 0.316 µM): 2.42%; viability, T/C (second compound 0.01 µM, first compound 1 µM): 3.12%; viability, T/C (second compound 0.0316 µM, first compound 0.00316 µM): 2.47%; viability, T/C (second compound 0.0316 µM, first compound 0.01 µM): 3.12%; viability, T/C (second compound 0.0316 µM, first compound 0.0316 µM): 1.48%; viability, T/C (second compound 0.0316 µM, first compound 0.1 µM): 1.69%; viability, T/C (second compound 0.0316 µM, first compound 0.316 µM): 1.21%; viability, T/C (second compound 0.0316 µM, first compound 1 µM): 1.12%; viability, T/C [18]: 0.29%
